Results: EP0041644B1 (priority 1980, dated 1981)

Assays:
L1210 Leukemia [1] = experiment: L1210 Leukemia - Test 1 (survival of tumor-bearing mice); type: in vivo
Excerpt: This evaluation of the ammonium salt finds the drug to be active against L1210 (ip) leukemia when administered ip one day post-implant of 10^6 L1210 cells (maximum T/C was 164%). […] The vehicle for the ammonium salt was water.

L1210 Leukemia [2] = experiment: L1210 Leukemia - Test 3 (vehicle comparison); type: in vivo, mice; conditions: Day 1 only, vehicle Saline
B16 Melanoma = B16 Melanoma - Test 3 (sc trocar fragments); type: in vivo, mice
L-1210 Leukemia [3] = experiment: L-1210 Leukemia (Table VIII)
Description: The sodium and ammonium salts of the present invention were tested against transplantable mouse tumors as indicated below. The methodology used generally followed the protocols of the National Cancer Institute (Cancer Chemotherapy Rep., Part 3, 3, 1-103 (1972). The essential experimental details are given at the bottom of the following tables.

L-1210 Leukemia [4] = experiment: L-1210 Leukemia (Table IX); type: in vivo, mice
[5] = 0.5 mg/kg/day ip, qd 1→9, in H2O
[6] = 0.5 mg/kg/day ip, qd 1→9, in saline
[7] = 1 mg/kg/day ip, qd 1→9, in saline
[8] = 2 mg/kg/day ip, qd 1→9, in saline
[9] = 4 mg/kg/day ip, d. 1 only, in H2O
[10] = 4 mg/kg/day ip, d. 1 only, in saline
[11] = 6 mg/kg/day ip, d. 1 only, in H2O
[12] = 6 mg/kg/day ip, d. 1 only, in saline
[13] = 8 mg/kg/day ip, d. 1 only, in H2O
[14] = 8 mg/kg/day ip, d. 1 only, in saline
[15] = 10 mg/kg/day ip, d. 1 only, in H2O
[16] = 10 mg/kg/day ip, d. 1 only, in saline

## N.N.[Cl][Pt][Cl] [Cis-DDP, cis-diammine dichloroplatinum (II)]
L1210 Leukemia [1]; [5]
  Average Weight Change: −3.8
  Effect MST % T/C: 143 % T/C
  MST Days: 10.0 days
  Survivors Day 5(30): 6/6
L1210 Leukemia [1]; [6]
  Average Weight Change: +1.5
  Effect MST % T/C: 100 % T/C
  MST Days: 7.0 days
L1210 Leukemia [1]; 1 mg/kg/day ip, qd 1→9, in H2O
  Average Weight Change: −3.7
  Effect MST % T/C: 114 % T/C
  MST Days: 8.0 days
  Survivors Day 5(30): 6/6
L1210 Leukemia [1]; [7]
  Average Weight Change: −0.9
  Effect MST % T/C: 150 % T/C
  MST Days: 10.5 days
  Survivors Day 5(30): 6/6
L1210 Leukemia [1]; 2 mg/kg/day ip, qd 1→9, in H2O
  Average Weight Change: −4.0
  Effect MST % T/C: 86 % T/C
  MST Days: 6.0 days
  Survivors Day 5(30): 4/6
L1210 Leukemia [1]; [8]
  Average Weight Change: −3.3
  Effect MST % T/C: 250 % T/C
  MST Days: 17.5 days
L1210 Leukemia [1]; [9]
  Average Weight Change: −5.9
  Effect MST % T/C: 100 % T/C
  MST Days: 7.0 days
  Survivors Day 5(30): 6/6
L1210 Leukemia [1]; [10]
  Average Weight Change: −0.7
  Effect MST % T/C: 164 % T/C
  MST Days: 11.5 days
  Survivors Day 5(30): 6/6
L1210 Leukemia [1]; [11]
  Average Weight Change: TOX
  Effect MST % T/C: TOX
  MST Days: TOX
  Survivors Day 5(30): 1/6
L1210 Leukemia [1]; [12]
  Effect MST % T/C: 186 % T/C
  MST Days: 13.0 days
  Survivors Day 5(30): 6/6
L1210 Leukemia [1]; [13]
  Average Weight Change: TOX
  Effect MST % T/C: TOX
  MST Days: TOX
  Survivors Day 5(30): 4/6
L1210 Leukemia [1]; [14]
  Effect MST % T/C: 193 % T/C
  MST Days: 13.5 days
  Survivors Day 5(30): 6/6
L1210 Leukemia [1]; [15]
  Average Weight Change: TOX
  Effect MST % T/C: TOX
  MST Days: TOX
  Survivors Day 5(30): 1/6
L1210 Leukemia [1]; [16]
  Average Weight Change: −3.6
  MST Days: 14.5 days
  Survivors Day 5(30): 6/6
L1210 Leukemia [2]; 4 mg/kg ip
  Average Weight Change: −1.7
  Effect MST % T/C: 143 % T/C
  MST Days: 10.0 days
  Survivors Day 5: 6/6
L1210 Leukemia [2]; 6 mg/kg ip
  Average Weight Change: −2.3
  Effect MST % T/C: 143 % T/C
  MST Days: 10.0 days
  Survivors Day 5: 6/6
L1210 Leukemia [2]; 8 mg/kg ip
  Average Weight Change: −1.8
  Effect MST % T/C: 150 % T/C
  MST Days: 10.5 days
  Survivors Day 5: 6/6
L1210 Leukemia [2]; 10 mg/kg ip
  Average Weight Change: −4.5
  Effect MST % T/C: 150 % T/C
  MST Days: 10.5 days
  Survivors Day 5: 6/6
B16 Melanoma; 0.8 mg/kg/inj ip, qd 1→9
  Average Weight Change: -0.4 g
  Effect MST %TC: 113 %TC
  MST Days: 34.5 days
B16 Melanoma; 1.6 mg/kg/inj ip, qd 1→9
  Average Weight Change: -2.4 g
  Effect MST %TC: 118 %TC
  MST Days: 36.0 days
B16 Melanoma; 2.4 mg/kg/inj ip, qd 1→9
  Average Weight Change: -3.5 g
  Effect MST %TC: 97 %TC
  MST Days: 29.5 days
B16 Melanoma; 4 mg/kg/inj iv, d.1, 5 & 9
  Average Weight Change: -0.6 g
  Effect MST %TC: 156 %TC
  MST Days: 47.5 days
B16 Melanoma; 6 mg/kg/inj iv, d.1, 5 & 9
  Average Weight Change: -2.2 g
  Effect MST %TC: 131 %TC
  MST Days: 40.0 days
B16 Melanoma; 8 mg/kg/inj iv, d.1, 5 & 9
  Average Weight Change: -2.8 g
  Effect MST %TC: 125 %TC
  MST Days: 38.0 days
  Survivors Day 10 (60): 9/10
B16 Melanoma; given ip, sc-implanted B16 melanoma
  T/C: inactive
B16 Melanoma; given iv, sc-implanted B16 melanoma
  maximum T/C: 156%
L-1210 Leukemia [3]; 0.4 mg/kg/inj ip, qd 1→9
  Average Weight Change,g: +0.8 g
  Effect MST % T/C: 117 % T/C
  MST Days: 7.0 days
  Survivors Day 5(30): 6/6
L-1210 Leukemia [3]; 0.8 mg/kg/inj ip, qd 1→9
  Average Weight Change,g: -0.8 g
  Effect MST % T/C: 133 % T/C
  MST Days: 8.0 days
  Survivors Day 5(30): 6/6
L-1210 Leukemia [3]; 1.6 mg/kg/inj ip, qd 1→9
  Average Weight Change,g: -2.5 g
  Effect MST % T/C: 200 % T/C
  MST Days: 12.0 days
  Survivors Day 5(30): 6/6
L-1210 Leukemia [3]; 2.4 mg/kg/inj ip, qd 1→9
  Average Weight Change,g: -3.1 g
  Effect MST % T/C: 167 % T/C
  MST Days: 10.0 days
  Survivors Day 5(30): 6/6
L-1210 Leukemia [3]; 4 mg/kg/inj ip, d.1
  Average Weight Change,g: -1.5 g
  Effect MST % T/C: 167 % T/C
  MST Days: 10.0 days
  Survivors Day 5(30): 6/6
L-1210 Leukemia [3]; 6 mg/kg/inj ip, d.1
  Average Weight Change,g: -3.7 g
  Effect MST % T/C: 167 % T/C
  MST Days: 10.0 days
  Survivors Day 5(30): 6/6
L-1210 Leukemia [3]; 8 mg/kg/inj ip, d.1
  Average Weight Change,g: -2.8 g
  Effect MST % T/C: 158 % T/C
  MST Days: 9.5 days
  Survivors Day 5(30): 6/6
L-1210 Leukemia [3]; 10 mg/kg/inj ip, d.1
  Average Weight Change,g: -2.0 g
  Effect MST % T/C: 208 % T/C
  MST Days: 12.5 days
  Survivors Day 5(30): 6/6
L-1210 Leukemia [3]; qd 1→9, 1.6 mg/kg/inj
  maximum T/C: 200%
L-1210 Leukemia [3]; single ip injections
  maximum T/C: 208%
L-1210 Leukemia [3]; single ip injections, dose of maximum T/C
  optimal doses: 10 mg/kg
L-1210 Leukemia [4]; 0.4 mg/kg/inj ip, qd 1→9
  Average Weight Change,g: -0.6 g
  Effect MST % T/C: 108 % T/C
  MST Days: 7.0 days
  Survivors Day 5(45): 6/6
L-1210 Leukemia [4]; 0.8 mg/kg/inj ip, qd 1→9
  Average Weight Change,g: -2.1 g
  Effect MST % T/C: 138 % T/C
  MST Days: 9.0 days
  Survivors Day 5(45): 6/6
L-1210 Leukemia [4]; 1.6 mg/kg/inj ip, qd 1→9
  Average Weight Change,g: -2.9 g
  Effect MST % T/C: 154 % T/C
  MST Days: 10.0 days
  Survivors Day 5(45): 6/6
L-1210 Leukemia [4]; 2 mg/kg/inj ip, Day 1
  Average Weight Change,g: -0.7 g
  Effect MST % T/C: 138 % T/C
  MST Days: 9.0 days
  Survivors Day 5(45): 6/6
L-1210 Leukemia [4]; 2.4 mg/kg/inj ip, qd 1→9
  Average Weight Change,g: -3.8 g
  Effect MST % T/C: 177 % T/C
  MST Days: 11.5 days
  Survivors Day 5(45): 6/6
L-1210 Leukemia [4]; 4 mg/kg/inj ip, Day 1
  Average Weight Change,g: -2.1 g
  Effect MST % T/C: 123 % T/C
  MST Days: 8.0 days
  Survivors Day 5(45): 6/6
L-1210 Leukemia [4]; 6 mg/kg/inj ip, Day 1
  Average Weight Change,g: -3.7 g
  Effect MST % T/C: 154 % T/C
  MST Days: 10.0 days
  Survivors Day 5(45): 6/6
L-1210 Leukemia [4]; 8 mg/kg/inj ip, Day 1
  Average Weight Change,g: -3.4 g
  Effect MST % T/C: 185 % T/C
  MST Days: 12.0 days
  Survivors Day 5(45): 6/6
L-1210 Leukemia [4]; qd 1→9 (cis-DDP 2.4, parent 8 and 12, sodium salt 12 mg/kg/injection)
  maximum T/C: 177%
L-1210 Leukemia [4]; single ip injection at maximum tolerated dose (cis-DDP 8 mg/kg, the two others 36 mg/kg)
  maximum T/C: 185%
